According to ChEMBL document CHEMBL2417377, “Hit-to-lead optimization and kinase selectivity of imidazo[1,2-a]quinoxalin-4-amine derived JNK1 inhibitors” (Bioorg Med Chem Lett, 2013):

Key:
Conditions in all cases: PC-3
[1] = target: Epidermal growth factor receptor (Homo sapiens) (UniProt P00533); experiment: Inhibition of EGFR in human PC3 cell lysates at 10 uM using desthiobiotin-tagged ATP probe AX9989 followed by trypsinization by LC/MS analysis
[2] = target: T1, Phosphatidylinositol 5-phosphate 4-kinase type-2 gamma (Homo sapiens) (UniProt Q8TBX8); experiment: Inhibition of PIP4K2C in human PC3 cell lysates at 10 uM using desthiobiotin-tagged ATP probe AX9989 followed by trypsinization by LC/MS analysis
T1 sequence (whole entry): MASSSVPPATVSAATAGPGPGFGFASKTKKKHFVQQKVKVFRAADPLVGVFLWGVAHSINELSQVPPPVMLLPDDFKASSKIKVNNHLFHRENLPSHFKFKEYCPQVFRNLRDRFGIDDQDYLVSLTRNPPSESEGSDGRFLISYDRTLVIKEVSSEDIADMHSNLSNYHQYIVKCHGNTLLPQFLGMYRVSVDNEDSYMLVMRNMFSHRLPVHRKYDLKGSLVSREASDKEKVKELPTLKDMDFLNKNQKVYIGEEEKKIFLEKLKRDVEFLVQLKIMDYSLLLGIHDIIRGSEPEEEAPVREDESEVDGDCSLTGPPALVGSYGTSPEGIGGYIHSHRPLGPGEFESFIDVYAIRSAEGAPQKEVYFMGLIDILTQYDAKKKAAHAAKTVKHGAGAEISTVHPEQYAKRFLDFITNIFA

[3] = target: Tyrosine-protein kinase CSK (Homo sapiens) (UniProt P41240); experiment: Inhibition of CSK in human PC3 cell lysates at 10 uM using desthiobiotin-tagged ATP probe AX9989 followed by trypsinization by LC/MS analysis
Sequence of Tyrosine-protein kinase CSK (Homo sapiens) (P41240 2-450 limits assumed): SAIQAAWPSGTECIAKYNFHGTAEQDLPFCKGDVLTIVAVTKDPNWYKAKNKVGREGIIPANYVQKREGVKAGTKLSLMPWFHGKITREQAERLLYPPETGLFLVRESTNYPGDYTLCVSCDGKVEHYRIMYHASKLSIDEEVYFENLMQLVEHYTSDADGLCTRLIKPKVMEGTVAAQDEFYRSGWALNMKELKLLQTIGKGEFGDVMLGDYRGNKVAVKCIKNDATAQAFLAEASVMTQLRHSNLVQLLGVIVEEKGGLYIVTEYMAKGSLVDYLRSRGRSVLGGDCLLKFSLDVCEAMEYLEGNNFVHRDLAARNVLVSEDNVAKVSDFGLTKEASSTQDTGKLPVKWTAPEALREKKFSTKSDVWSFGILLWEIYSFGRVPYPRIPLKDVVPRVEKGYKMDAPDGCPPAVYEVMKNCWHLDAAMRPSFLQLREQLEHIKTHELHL

[4] = target: Tyrosine-protein kinase Fyn (Homo sapiens) (UniProt P06241); experiment: Inhibition of FYN in human PC3 cell lysates at 10 uM using desthiobiotin-tagged ATP probe AX9989 followed by trypsinization by LC/MS analysis
[5] = target: Proto-oncogene tyrosine-protein kinase Src (Homo sapiens) (UniProt P12931); experiment: Inhibition of SRC in human PC3 cell lysates at 10 uM using desthiobiotin-tagged ATP probe AX9989 followed by trypsinization by LC/MS analysis
Sequence of Proto-oncogene tyrosine-protein kinase Src (Homo sapiens) (P12931 2-536 limits assumed): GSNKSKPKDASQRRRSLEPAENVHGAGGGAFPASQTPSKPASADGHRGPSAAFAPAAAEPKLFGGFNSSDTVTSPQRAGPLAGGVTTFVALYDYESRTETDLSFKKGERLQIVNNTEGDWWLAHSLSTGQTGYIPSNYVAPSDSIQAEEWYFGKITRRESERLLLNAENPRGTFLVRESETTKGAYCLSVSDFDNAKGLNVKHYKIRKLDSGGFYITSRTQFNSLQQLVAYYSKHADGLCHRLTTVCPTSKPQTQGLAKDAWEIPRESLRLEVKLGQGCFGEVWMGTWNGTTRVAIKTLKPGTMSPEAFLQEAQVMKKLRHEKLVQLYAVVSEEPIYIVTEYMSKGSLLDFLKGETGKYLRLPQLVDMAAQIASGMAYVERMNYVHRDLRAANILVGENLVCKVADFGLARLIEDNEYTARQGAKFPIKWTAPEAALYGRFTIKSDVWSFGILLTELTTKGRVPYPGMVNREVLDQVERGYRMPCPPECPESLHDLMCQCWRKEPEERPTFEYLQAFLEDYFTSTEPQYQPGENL

[6] = target: Macrophage-stimulating protein receptor (Homo sapiens) (UniProt Q04912); experiment: Inhibition of RON in human PC3 cell lysates at 10 uM using desthiobiotin-tagged ATP probe AX9989 followed by trypsinization by LC/MS analysis
Sequence of Macrophage-stimulating protein receptor (Homo sapiens) (Q04912 25-304 limits assumed): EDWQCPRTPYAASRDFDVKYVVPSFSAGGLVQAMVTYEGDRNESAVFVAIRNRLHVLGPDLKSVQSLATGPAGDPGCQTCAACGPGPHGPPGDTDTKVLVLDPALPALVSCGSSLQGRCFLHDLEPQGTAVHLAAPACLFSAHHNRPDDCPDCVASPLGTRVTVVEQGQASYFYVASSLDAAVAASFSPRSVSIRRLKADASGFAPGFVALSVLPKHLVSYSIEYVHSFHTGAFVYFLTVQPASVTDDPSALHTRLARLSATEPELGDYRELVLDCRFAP
Sequence of Macrophage-stimulating protein receptor (Homo sapiens) (Q04912 310-1400 limits assumed): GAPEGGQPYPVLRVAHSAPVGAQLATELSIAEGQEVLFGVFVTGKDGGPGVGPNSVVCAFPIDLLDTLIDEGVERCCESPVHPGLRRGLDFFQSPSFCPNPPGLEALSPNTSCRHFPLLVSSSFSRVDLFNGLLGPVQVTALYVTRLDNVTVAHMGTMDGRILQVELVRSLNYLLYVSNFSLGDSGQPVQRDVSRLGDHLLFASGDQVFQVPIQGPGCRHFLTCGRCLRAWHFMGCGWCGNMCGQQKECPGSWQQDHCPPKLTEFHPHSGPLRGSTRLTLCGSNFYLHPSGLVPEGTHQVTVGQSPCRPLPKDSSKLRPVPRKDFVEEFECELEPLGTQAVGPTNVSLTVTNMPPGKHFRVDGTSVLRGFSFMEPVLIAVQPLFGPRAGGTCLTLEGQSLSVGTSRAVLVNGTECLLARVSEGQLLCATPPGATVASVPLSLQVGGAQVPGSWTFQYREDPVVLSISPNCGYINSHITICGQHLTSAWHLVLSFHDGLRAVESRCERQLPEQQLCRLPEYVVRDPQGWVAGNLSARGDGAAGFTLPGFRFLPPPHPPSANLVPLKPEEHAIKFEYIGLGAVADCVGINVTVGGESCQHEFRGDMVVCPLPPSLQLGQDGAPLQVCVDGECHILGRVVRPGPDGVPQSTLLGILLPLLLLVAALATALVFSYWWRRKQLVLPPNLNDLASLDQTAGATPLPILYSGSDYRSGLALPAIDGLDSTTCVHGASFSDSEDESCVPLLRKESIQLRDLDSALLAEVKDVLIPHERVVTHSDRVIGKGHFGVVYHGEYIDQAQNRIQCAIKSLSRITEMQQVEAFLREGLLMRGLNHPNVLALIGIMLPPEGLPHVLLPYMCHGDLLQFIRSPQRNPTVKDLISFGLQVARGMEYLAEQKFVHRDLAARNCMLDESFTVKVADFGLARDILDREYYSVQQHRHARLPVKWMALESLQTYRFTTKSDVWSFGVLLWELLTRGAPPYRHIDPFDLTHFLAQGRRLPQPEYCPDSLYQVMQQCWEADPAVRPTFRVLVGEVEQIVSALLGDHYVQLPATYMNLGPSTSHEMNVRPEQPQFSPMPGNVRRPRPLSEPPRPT

[7] = target: Serine/threonine-protein kinase WNK2 (Homo sapiens) (UniProt Q9Y3S1); experiment: Inhibition of Wnk2 in human PC3 cell lysates at 10 uM using desthiobiotin-tagged ATP probe AX9989 followed by trypsinization by LC/MS analysis
[8] = target: Cyclin-dependent kinase 10 (Homo sapiens) (UniProt Q15131); experiment: Inhibition of CDK10 in human PC3 cell lysates at 10 uM using desthiobiotin-tagged ATP probe AX9989 followed by trypsinization by LC/MS analysis
Sequence of Cyclin-dependent kinase 10 (Homo sapiens) (Q15131 whole entry): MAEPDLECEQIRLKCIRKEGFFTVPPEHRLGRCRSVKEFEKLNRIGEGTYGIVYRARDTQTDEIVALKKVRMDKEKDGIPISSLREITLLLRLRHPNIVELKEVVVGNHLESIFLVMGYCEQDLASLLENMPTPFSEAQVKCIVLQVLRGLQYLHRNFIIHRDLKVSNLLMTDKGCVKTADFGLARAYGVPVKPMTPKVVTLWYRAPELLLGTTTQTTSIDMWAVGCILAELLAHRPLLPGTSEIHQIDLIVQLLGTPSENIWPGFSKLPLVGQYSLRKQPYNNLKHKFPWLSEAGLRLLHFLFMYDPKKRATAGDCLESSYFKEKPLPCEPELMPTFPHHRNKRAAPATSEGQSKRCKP

[9] = target: Serine/threonine-protein kinase WNK1 (Homo sapiens) (UniProt Q9H4A3); experiment: Inhibition of Wnk1 in human PC3 cell lysates at 10 uM using desthiobiotin-tagged ATP probe AX9989 followed by trypsinization by LC/MS analysis
[10] = target: Serine/threonine-protein kinase Chk2 (Homo sapiens) (UniProt O96017); experiment: Inhibition of CHK2 in human PC3 cell lysates at 10 uM using desthiobiotin-tagged ATP probe AX9989 followed by trypsinization by LC/MS analysis
Sequence of Serine/threonine-protein kinase Chk2 (Homo sapiens) (O96017 whole entry): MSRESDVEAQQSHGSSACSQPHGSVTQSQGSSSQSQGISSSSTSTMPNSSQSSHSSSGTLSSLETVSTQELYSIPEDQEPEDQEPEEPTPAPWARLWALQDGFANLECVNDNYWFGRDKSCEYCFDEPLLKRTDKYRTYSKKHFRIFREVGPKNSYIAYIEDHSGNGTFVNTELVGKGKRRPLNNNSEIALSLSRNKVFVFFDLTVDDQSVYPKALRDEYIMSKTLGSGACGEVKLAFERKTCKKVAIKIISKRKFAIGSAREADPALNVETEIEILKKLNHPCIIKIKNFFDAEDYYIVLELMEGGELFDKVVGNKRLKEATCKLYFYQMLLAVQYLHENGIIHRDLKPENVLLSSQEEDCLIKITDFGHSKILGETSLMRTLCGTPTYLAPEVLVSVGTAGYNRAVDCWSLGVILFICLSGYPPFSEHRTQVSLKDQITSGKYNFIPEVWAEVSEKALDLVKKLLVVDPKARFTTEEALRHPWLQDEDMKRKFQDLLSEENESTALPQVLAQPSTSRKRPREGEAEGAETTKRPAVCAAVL

[11] = target: Rho-associated protein kinase 1 (Homo sapiens) (UniProt Q13464); experiment: Inhibition of ROCK1 in human PC3 cell lysates at 10 uM using desthiobiotin-tagged ATP probe AX9989 followed by trypsinization by LC/MS analysis
[12] = target: Protein kinase C alpha type (Homo sapiens) (UniProt P17252); experiment: Inhibition of PKCalpha in human PC3 cell lysates at 10 uM using desthiobiotin-tagged ATP probe AX9989 followed by trypsinization by LC/MS analysis
[13] = target: Dual specificity protein kinase CLK2 (Homo sapiens) (UniProt P49760); experiment: Inhibition of CLK2 in human PC3 cell lysates at 10 uM using desthiobiotin-tagged ATP probe AX9989 followed by trypsinization by LC/MS analysis
Sequence of Dual specificity protein kinase CLK2 (Homo sapiens) (P49760 whole entry, looked up): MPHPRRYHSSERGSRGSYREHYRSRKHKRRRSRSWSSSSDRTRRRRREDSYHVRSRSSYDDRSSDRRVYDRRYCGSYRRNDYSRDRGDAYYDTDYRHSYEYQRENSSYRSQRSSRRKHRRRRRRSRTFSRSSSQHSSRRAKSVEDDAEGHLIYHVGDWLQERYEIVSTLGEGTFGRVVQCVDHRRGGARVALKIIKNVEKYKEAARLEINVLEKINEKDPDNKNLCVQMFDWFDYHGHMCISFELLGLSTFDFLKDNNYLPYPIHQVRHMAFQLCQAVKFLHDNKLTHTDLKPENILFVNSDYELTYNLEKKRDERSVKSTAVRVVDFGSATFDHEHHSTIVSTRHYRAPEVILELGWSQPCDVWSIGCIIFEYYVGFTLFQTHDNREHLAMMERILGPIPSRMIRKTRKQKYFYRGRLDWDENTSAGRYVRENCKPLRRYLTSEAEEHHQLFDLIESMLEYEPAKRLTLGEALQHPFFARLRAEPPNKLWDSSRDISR

[14] = target: T2, Serine/threonine-protein kinase 4 (Homo sapiens) (UniProt Q13043); experiment: Inhibition of MST1 in human PC3 cell lysates at 10 uM using desthiobiotin-tagged ATP probe AX9989 followed by trypsinization by LC/MS analysis
T2 sequence (whole entry): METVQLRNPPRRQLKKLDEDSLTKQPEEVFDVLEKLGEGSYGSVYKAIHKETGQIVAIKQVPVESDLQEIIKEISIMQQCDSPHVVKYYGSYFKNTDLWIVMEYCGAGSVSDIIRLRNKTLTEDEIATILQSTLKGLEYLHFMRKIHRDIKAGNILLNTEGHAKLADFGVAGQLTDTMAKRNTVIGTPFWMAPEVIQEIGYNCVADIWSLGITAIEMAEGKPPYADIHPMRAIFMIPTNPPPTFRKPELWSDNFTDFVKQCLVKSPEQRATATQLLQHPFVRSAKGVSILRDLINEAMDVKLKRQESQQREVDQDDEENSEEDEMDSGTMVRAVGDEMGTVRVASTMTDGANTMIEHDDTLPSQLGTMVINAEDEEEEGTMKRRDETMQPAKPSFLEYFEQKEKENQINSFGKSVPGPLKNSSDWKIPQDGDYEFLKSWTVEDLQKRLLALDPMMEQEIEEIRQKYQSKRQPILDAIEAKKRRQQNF

[15] = target: Cyclin-dependent kinase 2 (Homo sapiens) (UniProt P24941); experiment: Inhibition of CDK2 in human PC3 cell lysates at 10 uM using desthiobiotin-tagged ATP probe AX9989 followed by trypsinization by LC/MS analysis
[16] = target: 3-phosphoinositide-dependent protein kinase 1 (Homo sapiens) (UniProt O15530); experiment: Inhibition of PDK1 in human PC3 cell lysates at 10 uM using desthiobiotin-tagged ATP probe AX9989 followed by trypsinization by LC/MS analysis
[17] = target: Phosphatidylinositol 4,5-bisphosphate 3-kinase catalytic subunit beta isoform (Homo sapiens) (UniProt P42338); experiment: Inhibition of PIK3CB in human PC3 cell lysates at 10 uM using desthiobiotin-tagged ATP probe AX9989 followed by trypsinization by LC/MS analysis

Measured: inhibition

Sequence of Epidermal growth factor receptor (Homo sapiens) (P00533 whole entry): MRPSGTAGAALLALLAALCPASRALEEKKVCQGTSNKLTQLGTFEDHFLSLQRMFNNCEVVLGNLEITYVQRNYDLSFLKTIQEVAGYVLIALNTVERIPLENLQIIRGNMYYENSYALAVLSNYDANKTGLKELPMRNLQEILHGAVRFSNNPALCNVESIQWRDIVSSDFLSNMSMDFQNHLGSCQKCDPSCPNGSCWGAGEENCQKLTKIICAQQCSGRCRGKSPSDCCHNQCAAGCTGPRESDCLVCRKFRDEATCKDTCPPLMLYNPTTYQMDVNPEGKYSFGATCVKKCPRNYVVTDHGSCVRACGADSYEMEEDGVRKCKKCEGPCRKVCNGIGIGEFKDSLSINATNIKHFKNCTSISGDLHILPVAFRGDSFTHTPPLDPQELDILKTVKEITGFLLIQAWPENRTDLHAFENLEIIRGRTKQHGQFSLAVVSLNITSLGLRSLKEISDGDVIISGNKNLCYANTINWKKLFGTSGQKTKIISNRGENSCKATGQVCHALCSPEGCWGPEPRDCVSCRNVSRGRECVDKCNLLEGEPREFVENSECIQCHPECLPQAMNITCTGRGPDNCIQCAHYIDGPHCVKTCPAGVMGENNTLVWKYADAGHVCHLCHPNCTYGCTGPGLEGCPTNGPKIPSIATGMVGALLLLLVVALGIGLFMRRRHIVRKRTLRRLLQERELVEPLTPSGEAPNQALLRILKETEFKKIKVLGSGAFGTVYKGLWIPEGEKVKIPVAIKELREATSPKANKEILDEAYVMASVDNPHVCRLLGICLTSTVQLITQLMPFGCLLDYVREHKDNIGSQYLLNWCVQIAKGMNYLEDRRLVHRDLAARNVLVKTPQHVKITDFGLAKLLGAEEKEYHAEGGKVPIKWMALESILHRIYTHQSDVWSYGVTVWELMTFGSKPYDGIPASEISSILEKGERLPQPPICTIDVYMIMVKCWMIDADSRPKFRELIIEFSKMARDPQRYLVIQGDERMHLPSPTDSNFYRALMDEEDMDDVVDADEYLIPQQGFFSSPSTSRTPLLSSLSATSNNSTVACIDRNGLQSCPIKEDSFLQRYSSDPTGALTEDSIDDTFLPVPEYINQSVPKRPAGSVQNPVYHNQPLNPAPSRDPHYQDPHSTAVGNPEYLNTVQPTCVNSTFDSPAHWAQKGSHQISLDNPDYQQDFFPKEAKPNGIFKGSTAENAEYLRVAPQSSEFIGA

CC[C@@H](NC(=O)c1ccc2nc(N[C@H]3CC[C@H](O)CC3)c3nccn3c2c1)c1ccccc1
< 35%: all assays above
